In ChEMBL document CHEMBL3751735, “Discovery of 2-(4-sulfonamidophenyl)-indole 3-carboxamides as potent and selective inhibitors with broad hepatitis C virus genotype activity targeting HCV NS4B” (Bioorg Med Chem Lett, 2016):
pEC50: −log10 of the molar value.

Tests used:
[1] = system: Hepatitis C virus; assay: Antiviral activity against HCV genotype 1b Con1 bicistronic replicon infected in human Huh7 cells assessed as replicon RNA expression measured 3 days post dose by real time RT-PCR analysis; format: functional, organism-based, Hepacivirus hominis; details: isolate Con1, Huh-7, 72 h
[2] = Toxicity against human HuH7 cells harboring HCV genotype 1b bicistronic replicon assessed as inhibition of GAPDH mRNA expression measured 3 days post dose by real time RT-PCR analysis; format: cell-based, Huh-7
[3] = system: Hepatitis C virus; assay: Antiviral activity against HCV genotype 3a S52/SG-Feo(SH) infected in human HuH7.5 cells measured 3 days post dose by Luciferase assay; format: functional, organism-based, Hepacivirus hominis; details: Huh-7, 72 h
[4] = Ratio of drug level in liver to plasma in Sprague-Dawley rat at 10 mg/kg, po measured 6 hrs post dose; format: ADME, organism-based; details: liver and plasma
[5] = system: Hepatitis C virus; assay: Antiviral activity against HCV genotype 1a H77S bicistronic replicon infected in human Huh7 cells assessed as replicon RNA expression measured 3 days post dose by real time RT-PCR analysis; format: functional, organism-based, Hepacivirus hominis; details: Huh-7, 72 h
[6] = AUC (0 to 6 hrs) in Sprague-Dawley rat plasma at 10 mg/kg, po measured at 30 mins to 6 hrs post dose; format: ADME, organism-based; design: dose 10 mg/kg, time < 6 hr, route oral
[7] = system: Hepatitis C virus; assay: Antiviral activity against HCV genotype 2a JFH-1 infected in human HuH7.5 cells assessed as HCV RNA expression measured 72 hrs post dose by qRT-PCR analysis; format: functional, organism-based, Hepacivirus hominis; details: JFH-1, Huh-7, 72 h

Row | Compound | pEC50 [1] | IC50 at 3 days [2] [nM] | pEC50 [3] | Kp at 6 h [4] | pEC50 [5] | AUC(0-t) at 6 h [6] [µM·h] | pEC50 [7]
1 | Cc1cc(NS(=O)(=O)C(C)(C)C)ccc1-c1c(C(N)=O)c2cc(F)c(OC(F)F)cc2n1-c1ccccc1 | 8.70 | > 10000 |  |  |  |  | 
2 | CCc1cc2c(cc1F)c(C(N)=O)c(-c1ccc(NS(=O)(=O)C(C)C)cc1)n2C1CCCC1 | 7.17 | > 10000 |  |  |  |  | 
3 | CC(C)(C)S(=O)(=O)Nc1ccc(-c2c(C(N)=O)c3cc(F)c(OC(F)F)cc3n2C2CCCCC2)c(Cl)c1 | 8.70 | > 10000 | 9.70 | 115 | > 9.00 | 2.1 | 7.55
4 | Cc1cc2c(cc1F)c(C(N)=O)c(-c1ccc(NS(=O)(=O)C(C)(C)C)cc1)n2C1CCCC1 | 7.41 | > 10000 | 6.50 | 15 | 7.70 | 0.457 | 8.00
5 | CCc1cc2c(cc1F)c(C(N)=O)c(-c1ccc(NS(=O)(=O)C(C)(C)C)cc1)n2C1CCCC1 | 8.15 | > 10000 | 6.94 | 27 | 6.89 | 4.12 | 7.70
6 | CC(C)(C)S(=O)(=O)Nc1ccc(-c2c(C(N)=O)c3cc(F)c(OC(F)F)cc3n2C2CCCC2)cc1 | 8.30 | > 10000 | 7.70 | 47 | 8.40 | 0.382 | 8.22
7 | CC(C)(C)S(=O)(=O)Nc1ccc(-c2c(C(N)=O)c3cc(F)c(OC(F)F)cc3n2C2CCCCC2)cc1F | 8.52 | > 1000 |  |  |  |  | 
8 | CC(C)(C)S(=O)(=O)Nc1ccc(-c2c(C(N)=O)c3cc(F)c(OC(F)F)cc3n2-c2ccccc2)cc1F | 7.92 | > 1100 |  |  |  |  | 
9 | CC(C)(C)S(=O)(=O)Nc1ccc(-c2c(C(N)=O)c3cc(F)c(OC(F)F)cc3n2C2CCCCC2)cc1Cl | 6.52 | > 1000 |  |  |  |  | 
10 | Cc1cc(NS(=O)(=O)C(C)(C)C)ccc1-c1c(C(N)=O)c2cc(F)c(OC(F)F)cc2n1C1CCCCC1 | 8.00 | > 10000 | 9.30 | 62 | 9.00 | 4.96 | 7.62
11 | CC(C)(C)S(=O)(=O)Nc1ccc(-c2c(C(N)=O)c3cc(F)c(OC(F)F)cc3n2C2CCCCC2)cn1 | 8.22 | > 10000 | 6.92 | 332 | 8.00 | 0.204 | 6.42
12 | Cc1cc2c(cc1F)c(C(N)=O)c(-c1ccc(NS(=O)(=O)C(C)(C)C)cc1)n2C1CCOCC1 | 7.77 | > 10000 |  |  |  |  | 
13 | CC(C)(C)S(=O)(=O)Nc1ccc(-c2c(C(N)=O)c3c(F)cc(C(F)F)cc3n2C2CCCC2)cc1 | 8.40 | > 10000 |  |  |  |  | 
14 | COc1cc2c(cc1F)c(C(N)=O)c(-c1ccc(NS(=O)(=O)C(C)(C)C)cc1)n2C1CCCC1 | 7.23 | > 10000 |  |  |  |  | 
15 | CCc1cc2c(cc1F)c(C(N)=O)c(-c1cnc(NS(=O)(=O)C(C)(C)C)nc1)n2C1CCCCC1 | 5.68 | > 10000 |  |  |  |  | 
16 | Cc1cc2c(cc1F)c(C(N)=O)c(-c1ccc(NS(=O)(=O)C(C)(C)C)cc1)n2-c1cccnc1 | 6.74 | > 10000 |  |  |  |  | 
17 | CC(C)c1cc2c(cc1F)c(C(N)=O)c(-c1ccc(NS(=O)(=O)C(C)(C)C)cc1)n2C1CCCC1 | 6.77 | > 10000 |  |  |  |  | 
18 | Cc1cc(-c2c(C(N)=O)c3cc(F)c(OC(F)F)cc3n2-c2ccccc2)ccc1NS(=O)(=O)C(C)(C)C | 6.92 | > 10000 |  |  |  |  | 
19 | CCc1cc2c(cc1F)c(C(N)=O)c(-c1ccc(NS(=O)(=O)C(C)(C)C)cc1)n2C1CCCCC1 | 8.40 | > 10000 |  |  |  |  | 
20 | CC(C)(C)S(=O)(=O)Nc1ccc(-c2c(C(N)=O)c3cc(F)c(OC(F)F)cc3n2C2CCCC2)c(F)c1 | 8.70 | > 10000 |  |  | 8.00 | 0.37 | 8.22
